Tested on: E. coli ATCC 25922
Test: Time-dependent killing
Type: cell-based
Settings: antibiotic at 4x MIC

## CC1(C)S[C@@H]2[C@H](NC(=O)[C@H](N)c3ccccc3)C(=O)N2[C@H]1C(=O)O [Ampicillin, ampicillin]
  c.f.u. in time-dependent killing: fell below the limit of detection

— publication PMC10155127 (Nature microbiology, 2022)
